Reference: patent publication US20150118329A1, “METHOD FOR PROMOTING ADIPONECTIN PRODUCTION, PREVENTION AND TREATMENT OF HYPOADIPONECTINEMIA” (AMINO UP CHEMICAL CO., LTD., priority 2011, published 2015)

What follows are compounds tested on adipocytes derived from a patient with diabetes, who was severely obese (assay: Screening of functional food product materials (samples 1 to 71) for APR in adipocytes derived from a severely obese diabetic patient). Settings: concentration in culture medium 10 nM; 48 hour value divided by 96 hour value.
Format: cell-based, human
Method: Fat tissues were harvested from remainder tissues removed at the time of surgery of a subject (a patient who was severely obese and had diabetes) who provided informed consent. These fat tissues were treated in the same manner as in Example 1 and used in screening for the adiponectin production-promoting action of functional food product materials (samples 1 to 71).
The samples 1 to 71 (Table 1 and Table 2) were suspended and dissolved in water, heated water (80° C.) or DMSO, and then stirred for 30 minutes, followed by filter filtration […]) for preparation thereof. The sample 25 was prepared by filter filtration (Φ0.45 μm) without carrying out dilution. Further, with regard to the samples 1 to 18, each of the samples was made with water to 1% suspension or aqueous solution, followed by filter filtration (Φ0.45 μm) for preparation thereof. Botanbouhu extract of the samples 58 and 59 was prepared in the same manner as in Example 2. Table 1 and Table 2 show material, solvent and concentration in the culture medium of samples 1 to 71 (samples 6 to 8 “Mixture of three types of peptides” (manufactured by Katano Bussan) is a mixture of peptides derived from dried kelp or konbu, sardine and pearl oyster).
Eight days after DM-2 treatment, the medium was changed to AM-1 medium with each of the samples 1 to 71 being added and 48 hour value and 96 hour value were measured in the same manner as described in Example 3. APR (Adiponectin Production Ratio; adiponectin secretion promoting index) was calculated by dividing the 48 hour value by the 96 hour value. The results are shown in Table 1 and Table 2 and FIG. 4A.

First: Cc1c(C(=O)NN2CCCCC2)nn(-c2ccc(Cl)cc2Cl)c1-c1ccc(Cl)cc1 [Sample 62, Rimonabant]
Second: CC(C)(Oc1ccc(CCNC(=O)c2ccc(Cl)cc2)cc1)C(=O)O [Sample 65, Bezafibrate]
The APR of the first is lower: 0.69 for the first, 0.75 for the second.

Compared with CCC1=C(C)CN(C(=O)NCCc2ccc(S(=O)(=O)NC(=O)N[C@H]3CC[C@H](C)CC3)cc2)C1=O [Sample 70, Glimepyride], CCc1ccc(CCOc2ccc(CC3SC(=O)NC3=O)cc2)nc1 (stereo not shown) [Sample 60, Pioglitazone] is higher in APR: 0.82 for the first, 0.96 for the second.

Going from CC(=O)S[C@@H]1CC2=CC(=O)CC[C@]2(C)[C@H]2CC[C@@]3(C)[C@@H](CC[C@@]34CCC(=O)O4)[C@H]12 [Sample 63, Spironolactone] to COC(=O)[C@@H]1CC2=CC(=O)CC[C@]2(C)[C@@]23O[C@@H]2C[C@@]2(C)[C@@H](CC[C@@]24CCC(=O)O4)[C@H]13 [Sample 64, Eplerenone], the APR rises from 0.60 to 0.62.

First: CN(C)C(=N)N=C(N)N [Sample 71, Metformin]
Second: CCCc1nc(C(C)(C)O)c(C(=O)O)n1Cc1ccc(-c2ccccc2-c2nnn[nH]2)cc1 [Sample 69, Olmesartan]
The APR of the first is higher: 0.53 for the first, 0.00 for the second.

Going from O=S(=O)(c1cccc2cnccc12)N1CCCNCC1 [Sample 66, Fasudil] to CCCc1nc2c(C)cc(-c3nc4ccccc4n3C)cc2n1Cc1ccc(-c2ccccc2C(=O)O)cc1 [Sample 61, Telmisartan], the APR falls from 0.58 to 0.54.

Same assay, conditions: concentration in culture medium 0.067%; 48 hour value divided by 96 hour value

Fucoxanthin [Sample 36] and CC1=C(/C=C/C(C)=C/C=C/C(C)=C/C=C/C=C(C)/C=C/C=C(C)/C=C/C2=C(C)C(=O)[C@@H](O)CC2(C)C)C(C)(C)C[C@H](O)C1=O [Sample 37, Astaxanthin] are the same in APR: 0.34 for the first, 0.34 for the second.

Compound Hyaluronic acid [Sample 31] has an APR of 0.36.
